Molecules are shown by their SMILES. Some results are limits rather than exact numbers.

The results in this text go back to ChEMBL document CHEMBL3751785, “Development and structural analysis of adenosine site binding tankyrase inhibitors” (Bioorg Med Chem Lett, 2016).

For assay [1], the target named is T1, Tankyrase 1/2 (Homo sapiens, UniProt Q9H2K2+O95271).
T1 sequence (Q9H2K2 whole entry): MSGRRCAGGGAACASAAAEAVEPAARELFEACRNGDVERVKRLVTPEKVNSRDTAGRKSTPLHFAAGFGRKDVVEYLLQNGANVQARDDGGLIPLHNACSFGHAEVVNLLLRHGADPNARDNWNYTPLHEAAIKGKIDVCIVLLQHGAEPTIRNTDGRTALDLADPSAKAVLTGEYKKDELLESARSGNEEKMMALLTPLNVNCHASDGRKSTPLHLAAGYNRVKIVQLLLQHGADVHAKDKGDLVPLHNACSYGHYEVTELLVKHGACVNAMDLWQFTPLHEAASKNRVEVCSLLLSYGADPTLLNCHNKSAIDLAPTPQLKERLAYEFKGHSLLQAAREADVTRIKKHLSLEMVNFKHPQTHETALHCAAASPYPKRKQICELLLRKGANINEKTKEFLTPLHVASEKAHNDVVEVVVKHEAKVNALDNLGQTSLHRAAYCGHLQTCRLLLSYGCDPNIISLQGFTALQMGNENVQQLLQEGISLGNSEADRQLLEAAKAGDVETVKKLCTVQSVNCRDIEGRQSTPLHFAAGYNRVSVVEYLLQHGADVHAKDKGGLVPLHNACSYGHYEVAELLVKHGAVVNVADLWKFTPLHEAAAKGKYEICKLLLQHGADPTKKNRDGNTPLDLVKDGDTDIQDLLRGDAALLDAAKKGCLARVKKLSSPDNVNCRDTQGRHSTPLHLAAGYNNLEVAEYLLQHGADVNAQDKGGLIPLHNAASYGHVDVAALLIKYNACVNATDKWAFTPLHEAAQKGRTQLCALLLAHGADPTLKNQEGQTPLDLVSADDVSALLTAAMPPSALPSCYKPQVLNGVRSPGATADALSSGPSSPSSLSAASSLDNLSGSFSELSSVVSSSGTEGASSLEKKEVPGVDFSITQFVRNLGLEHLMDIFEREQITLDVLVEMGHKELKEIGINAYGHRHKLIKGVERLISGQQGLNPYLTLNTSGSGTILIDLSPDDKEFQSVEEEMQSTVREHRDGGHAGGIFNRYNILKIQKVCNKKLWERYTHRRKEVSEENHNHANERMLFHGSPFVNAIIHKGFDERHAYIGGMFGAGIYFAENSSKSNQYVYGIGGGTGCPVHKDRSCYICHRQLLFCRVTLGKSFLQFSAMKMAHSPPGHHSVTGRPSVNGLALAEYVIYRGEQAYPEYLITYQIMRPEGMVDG
T1 sequence (O95271 whole entry): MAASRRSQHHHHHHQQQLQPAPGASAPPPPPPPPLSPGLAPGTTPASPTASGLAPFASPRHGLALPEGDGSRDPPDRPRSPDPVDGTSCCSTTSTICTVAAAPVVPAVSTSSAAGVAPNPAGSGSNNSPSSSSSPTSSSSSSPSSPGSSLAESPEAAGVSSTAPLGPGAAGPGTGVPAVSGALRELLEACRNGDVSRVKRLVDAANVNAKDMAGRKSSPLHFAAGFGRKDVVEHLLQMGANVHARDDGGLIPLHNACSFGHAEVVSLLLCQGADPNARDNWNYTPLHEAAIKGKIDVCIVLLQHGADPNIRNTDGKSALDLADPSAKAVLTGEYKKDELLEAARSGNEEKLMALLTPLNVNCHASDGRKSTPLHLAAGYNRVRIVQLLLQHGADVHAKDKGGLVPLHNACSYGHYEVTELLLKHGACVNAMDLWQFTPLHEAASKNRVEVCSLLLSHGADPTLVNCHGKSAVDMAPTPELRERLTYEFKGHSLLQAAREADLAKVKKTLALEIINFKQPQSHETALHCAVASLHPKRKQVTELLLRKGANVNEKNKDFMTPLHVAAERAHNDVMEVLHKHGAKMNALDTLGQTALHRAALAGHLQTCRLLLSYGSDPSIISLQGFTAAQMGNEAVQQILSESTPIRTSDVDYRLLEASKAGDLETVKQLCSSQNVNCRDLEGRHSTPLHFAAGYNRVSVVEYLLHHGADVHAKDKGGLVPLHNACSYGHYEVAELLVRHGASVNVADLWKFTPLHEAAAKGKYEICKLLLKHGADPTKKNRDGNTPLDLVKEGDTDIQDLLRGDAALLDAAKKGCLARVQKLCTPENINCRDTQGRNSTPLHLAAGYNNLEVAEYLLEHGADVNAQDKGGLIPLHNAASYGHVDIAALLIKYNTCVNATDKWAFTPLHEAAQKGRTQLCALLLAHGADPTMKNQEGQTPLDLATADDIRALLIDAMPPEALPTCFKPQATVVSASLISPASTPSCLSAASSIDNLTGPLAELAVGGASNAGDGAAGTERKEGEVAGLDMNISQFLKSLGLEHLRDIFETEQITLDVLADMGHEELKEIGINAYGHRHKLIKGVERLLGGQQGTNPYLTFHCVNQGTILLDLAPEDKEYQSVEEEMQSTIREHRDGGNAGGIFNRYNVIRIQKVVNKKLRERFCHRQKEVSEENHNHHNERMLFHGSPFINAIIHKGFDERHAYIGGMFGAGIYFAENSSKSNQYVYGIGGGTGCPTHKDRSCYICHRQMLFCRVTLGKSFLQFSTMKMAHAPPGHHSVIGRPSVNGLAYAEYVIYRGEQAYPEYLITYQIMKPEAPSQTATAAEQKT
Kind of assay: Inhibition of tankyrase in WNT3a-stimulated human HEK293 cells by luciferase reporter gene assay. It counts as cell-based. Background: Reporter assays use an easily measured gene product as a stand-in for the process of interest.

Assay [2] has as its target Poly [ADP-ribose] polymerase 1 (Homo sapiens, UniProt P09874). Kind of assay: Inhibition of human ARTD1 by fluorescence analysis.

Sequence of Poly [ADP-ribose] polymerase 1 (P09874 whole entry): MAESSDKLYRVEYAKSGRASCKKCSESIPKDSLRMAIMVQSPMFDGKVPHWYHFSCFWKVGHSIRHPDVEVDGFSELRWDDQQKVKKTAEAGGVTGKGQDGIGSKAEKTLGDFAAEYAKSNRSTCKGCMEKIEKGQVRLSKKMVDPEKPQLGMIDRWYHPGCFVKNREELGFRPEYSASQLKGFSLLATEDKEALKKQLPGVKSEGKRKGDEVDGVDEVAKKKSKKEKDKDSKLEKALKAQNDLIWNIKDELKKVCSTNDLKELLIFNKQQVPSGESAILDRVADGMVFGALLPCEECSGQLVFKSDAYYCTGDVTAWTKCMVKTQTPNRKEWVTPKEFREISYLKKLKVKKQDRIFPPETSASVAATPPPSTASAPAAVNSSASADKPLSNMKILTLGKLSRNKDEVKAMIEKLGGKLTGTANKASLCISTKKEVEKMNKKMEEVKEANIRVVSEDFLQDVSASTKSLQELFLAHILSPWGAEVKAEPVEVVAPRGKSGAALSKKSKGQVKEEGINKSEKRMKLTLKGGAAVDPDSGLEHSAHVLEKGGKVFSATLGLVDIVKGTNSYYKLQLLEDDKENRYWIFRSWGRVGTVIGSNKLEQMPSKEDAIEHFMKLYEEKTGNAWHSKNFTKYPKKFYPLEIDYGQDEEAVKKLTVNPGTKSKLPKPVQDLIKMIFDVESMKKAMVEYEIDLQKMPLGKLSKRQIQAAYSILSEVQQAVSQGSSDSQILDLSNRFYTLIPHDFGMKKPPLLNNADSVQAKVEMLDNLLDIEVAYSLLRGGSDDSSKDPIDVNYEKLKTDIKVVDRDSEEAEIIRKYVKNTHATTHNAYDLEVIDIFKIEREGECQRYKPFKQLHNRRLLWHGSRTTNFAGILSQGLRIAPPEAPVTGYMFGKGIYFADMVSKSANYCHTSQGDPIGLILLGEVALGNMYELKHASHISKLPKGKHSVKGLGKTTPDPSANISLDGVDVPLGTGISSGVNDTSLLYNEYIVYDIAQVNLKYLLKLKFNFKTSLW

What is called IC50 is the concentration that inhibits the measured activity by half. The low end stands for greater potency, the high end for weaker potency. As for `COc1ccc(C2(CNC(=O)c3ccc(NC(=O)c4ccco4)cc3Cl)CCOCC2)cc1`, the IC50 in assay [1] is 0.36 µM; in assay [2], > 100 µM.
